Data as given in patent US8399493B2, “Pyridinone derivatives and their use as positive allosteric modulators of mGluR2-receptors” (Janssen Pharmaceuticals, Inc., priority 2004, dated 2013).

melting point | SMILES
93 °C | O=c1ccc(-c2ccc3[nH]ccc3c2)cn1Cc1ccccc1 [1-30]
125 °C | C=Cc1ccc(-c2ccc(=O)n(Cc3ccc(Cl)cc3)c2)cc1 [2-06]
151 °C | COc1ccc(-c2ccc(=O)n(Cc3ccc(Cl)cc3)c2)cc1NS(C)(=O)=O [2-56, N-(5-(1-(4-Chlorobenzyl)-6-oxo-1,6-dihydropyridin-3-yl)-2-methoxyphenyl)methanesulfonamide]
194 °C | CC(=O)Nc1cccc(-c2ccc(=O)n(Cc3ccc(Cl)cc3F)c2)c1 [6-57]
136 °C | COc1ccc(-c2ccc(=O)n(Cc3ccc(Cl)cc3F)c2)cn1 [6-51, 1-(4-Chloro-2-fluorobenzyl)-5-(6-methoxypyridin-3-yl)pyridin-2(1H)-one]
79 °C | COCCOCc1ccc(-c2ccc(=O)n(Cc3ccc(Cl)cc3)c2)cc1 [2-28]
177 °C | O=c1ccc(-c2ccc(S(=O)(=O)N3CCCC3)cc2)cn1Cc1ccc(Cl)cc1F [6-75]
240 °C | O=c1ccc(-c2cccc(-c3nn[nH]n3)c2)cn1Cc1ccc(Cl)cc1F [6-67]
164 °C | O=c1ccc(-c2nc3ccccc3s2)cn1Cc1ccc(Cl)c(F)c1 [6-19, 1-(4-Chloro-3-fluorobenzyl)-5-(benzo[d]thiazol-2-yl)pyridin-2(1H)-one]
160 °C | COc1ccc(-c2ccc(=O)n(Cc3ccc(C(F)(F)F)nc3)c2)cn1 [6-80]
126 °C | O=c1ccc(-c2ccc(N3CCOCC3)cc2)cn1Cc1ccc(Cl)cc1 [2-41]
142 °C | O=c1ccc(CNc2ccccc2)cn1Cc1ccc(Cl)cc1 [16-01]
109 °C | COCc1ccc(-c2ccc(=O)n(Cc3ccc(Cl)cc3)c2)cc1 [2-24]
114 °C | COc1ccc(OCc2ccc(=O)n(Cc3ccc(Cl)cc3)c2)cc1 [16-02, 1-(4-Chlorobenzyl)-5-((4-methoxyphenoxy)methyl)pyridin-2(1H)-one]
101 °C | O=c1ccc(-c2ccc(COCc3ccccc3)cc2)cn1Cc1ccc(Cl)cc1 [2-27]
128 °C | COc1ccc(-c2cc(CO)c(=O)n(Cc3ccc(Cl)cc3)c2)cc1 [9-08, 1-(4-Chlorobenzyl)-3-(hydroxymethyl)-5-(4-methoxyphenyl)pyridin-2(1H)-one]
114 °C | O=c1ccc(-c2ccc3ccccc3c2)cn1Cc1ccccc1 [1-32]
119 °C | COC(=O)COc1ccc(-c2ccc(=O)n(Cc3ccc(Cl)cc3F)c2)cc1 [6-41]
109 to 112 °C | Cc1ccc(-c2ccc(=O)n(Cc3ccc(Cl)cc3)c2)cc1F [2-10]
161 °C | CN(C)C(=O)Cc1ccc(-c2ccc(=O)n(Cc3ccc(Cl)cc3)c2)cc1 [2-45]

melting point | SMILES
155 °C | O=c1ccc(-c2ccc(CO)cc2)cn1Cc1ccc(Cl)cc1 [2-14]
162 °C | CNC(=O)COc1ccc(-c2ccc(=O)n(Cc3ccc(Cl)cc3F)c2)cc1 [6-52]
139 °C | N#Cc1ccc(-c2ccc(=O)n(Cc3ccc(F)c(F)c3)c2)cc1 [6-13]
95 °C | COc1ccc(-c2ccc(=O)n(Cc3ccc([N+](=O)[O-])cc3)c2)cc1 [4-33]
139 °C | CS(=O)(=O)NCCOc1ccc(-c2ccc(=O)n(Cc3ccc(Cl)cc3F)c2)cc1 [6-70]
72 °C | COCc1ccc(Cn2cc(-c3ccc(OC)cc3)ccc2=O)cc1 [4-25, 1-(4-(Methoxymethyl)benzyl)-5-(4-methoxyphenyl)pyridin-2(1H)-one]
153 °C | CN(C)c1ccc(-c2ccc(=O)n(Cc3ccccc3)c2)cc1 [1-26]
105 °C | COC(=O)CCc1ccc(-c2ccc(=O)n(Cc3ccc(Cl)cc3)c2)cc1 [2-36]
127 to 130 °C | COc1ccc(-c2ccc(=O)n(Cc3cnc(C)s3)c2)cc1 [4-52]
131 to 134 °C | COc1ccc(-c2ccc(=O)n(Cc3ccc(C(F)(F)F)cc3F)c2)cc1 [4-34]
80 °C | CCc1ccc(-c2ccc(=O)n(Cc3ccccc3)c2)cc1 [1-04]
165 °C | O=c1ccc(-c2cnc3ccccc3c2)cn1Cc1ccc(Cl)cc1 [2-70]
104 °C | CN(C)CCCOc1ccc(-c2ccc(=O)n(Cc3ccc(Cl)cc3F)c2)cc1 [6-45]
159 °C | CC(C)CCn1cc(-c2cccc(NS(C)(=O)=O)c2)ccc1=O [8-02, N-(3-(1-Isopentyl-6-oxo-1,6-dihydropyridin-3-yl)phenyl)methane-sulfonamide]
118 °C | CC(=O)c1ccc(-c2ccc(=O)n(Cc3ccccc3)c2)cc1 [1-23]
180 °C | O=C1CCCN1CCOc1ccc(-c2ccc(=O)n(Cc3ccc(Cl)cc3F)c2)cc1 [6-62]
145 °C | CC(C)(C)c1ccc(-c2ccc(=O)n(Cc3ccccc3)c2)cc1 [1-05]
100 to 102 °C | COc1ccc(-c2ccc(=O)n(Cc3cc(C)on3)c2)cc1 [4-40]
119 to 120 °C | COc1ccc(-c2ccc(=O)n(Cc3ccc(C#N)cc3)c2)cc1 [4-30]
230 °C | CC(=O)Nc1ccc(-c2ccc(=O)n(Cc3ccc(Cl)cc3F)c2)cc1 [6-58]

melting point | SMILES
153 °C | O=c1ccc(-c2ccc(OCCCN3CCOCC3)cc2)cn1Cc1ccc(Cl)cc1F [6-48]
71 °C | COc1ccc(-c2ccc(=O)n(Cc3cccc(F)c3F)c2)cc1 [4-13]
115 °C | CC(C)Cc1ccc(-c2ccc(=O)n(Cc3ccc(Cl)cc3)c2)cc1 [2-04]
120 °C | COc1ccc(-c2ccc(=O)n(Cc3ccc(C(F)(F)F)o3)c2)cc1 [4-39]
162 °C | CC(=O)c1ccc(-c2ccc(=O)n(Cc3ccc(Cl)cc3)c2)cc1 [2-30]
109 °C | COc1ccc(-c2ccc(=O)n(Cc3ccc(F)cc3F)c2)cc1 [4-12]
130 °C | COc1ccc(-c2ccc(=O)n(Cc3ccc(OC(F)(F)F)cc3)c2)cc1 [4-31]
101 °C | Cc1ccc(-c2ccc(=O)n(Cc3ccc(Cl)cc3)c2)s1 [2-60]
89 °C | COc1ccc(-c2ccc(=O)n(Cc3cccc(F)c3)c2)cc1 [4-09]
149 °C | O=c1ccc(-c2cccc([N+](=O)[O-])c2)cn1Cc1ccccc1 [1-27]
231 °C | O=c1ccc(-c2ccc(Cc3nn[nH]n3)cc2)cn1Cc1ccc(Cl)cc1 [2-51, 5-(4-((2H-Tetrazol-5-yl)methyl)phenyl)-1-(4-chlorobenzyl)pyridin-2(1H)-one]
106 °C | COCCNc1ccc(-c2ccc(=O)n(Cc3ccc(Cl)cc3)c2)cc1 [2-40]
150 °C | CC(=O)NCc1ccc(-c2ccc(=O)n(Cc3ccc(Cl)cc3F)c2)cc1 [6-61]
154 °C | O=c1ccc(-c2ccc(N3CCOCC3)nc2)cn1Cc1ccc(Cl)cc1 [2-65]
109 °C | CCSc1ccc(-c2ccc(=O)n(Cc3ccc(Cl)cc3)c2)cc1 [2-53]
104 °C | COc1ccc(-c2ccc(=O)n(Cc3ccc(Cl)cc3F)c2)cc1C [6-28]
127 °C | O=c1ccc(-c2ccc(C(F)(F)F)cc2)cn1Cc1ccc(Cl)cc1F [6-27]
120 °C | COc1ccc(-c2ccc(=O)n(Cc3ccccc3)c2)cc1OC [1-19]
91 °C | CC(C)COCc1ccc(-c2ccc(=O)n(Cc3ccc(Cl)cc3)c2)cc1 [2-26]
